*1 amine or outer side, *2 acyl side, *3 side chain or, on linkers, in order; H or OH if unused. Where a SMILES comes first, the peptide text is derived from it. [ ]: non-standard residue; d: D form. The star is where a group is joined. Dolaproine = CO[C@@H]([C@@H]1CCCN1)[C@@H](C)C(=O)O; Dil = CC[C@H](C)[C@H](NC)[C@@H](CC(=O)O)OC; γGlu = O=C(O)[C@H](CCC(=O)[*:2])N[*:1]; X4 = C[C@@H](N*)[C@@H](O)c1ccccc1; X1 = O=C(C1CCC(CN[*:1])CC1)[*:2]; NMeV = CN[C@H](C(=O)O)C(C)C; CO = O=C([*:1])[*:2]; Ahx = NCCCCCC(=O)O
Assays:
PC3pip cells [1] = test: In vitro cytotoxicity assay (CCK-8, 72 h), PSMA-positive cells; type: cell-based; conditions: 72 hours; PC3flu IC50 over PC3pip IC50
Description: Cells (1,000/well) were seeded in 96-well culture plates the day before treatment. Cells were incubated with various concentrations of drugs for 72 hours and cell viability evaluated by CCK-8 (Dojindo). The concentration required to reach 50% of cell proliferation was determined (IC50) by GraphPad Prism 3.0.

α-tubulin = test: Immunofluorescence analysis of alpha-tubulin in PC3pip and PC3flu cells; type: cell-based; conditions: 5 nM, 24 hours
Description: Cells on coverslips at about 70% confluency were incubated with 5 nM of MMAE, PSMA-1-VcMMAE-Cy5.5 or PSMA-1-McMMAE-Cy5.5 for 24 hours. Cells were washed and fixed with 4% paraformaldehyde for 10 minutes, permeabilized with 0.1% Triton™ X-100 for 10 minutes, and blocked with 1% BSA for 1 hour at room temperature. Alpha-tubulin (B5-1-2) Alexa Fluor 488 Mouse Monoclonal Antibody (Invitrogen) was then added at 2 μg/mL in 0.1% BSA and incubated for 3 hours at room temperature. Cells were counterstained with DAPI, mounted with Fluor-Mount aqueous mounting solution, and observed under Leica DM4000B fluorescence microscopy at 40×.

[2] = test system: heterotopic PC3pip tumors; test: Heterotopic PC3pip tumor survival / antitumor study; type: in vivo
Description: Male athymic nude mice were implanted subcutaneously with 1×10^6 of PC3pip cells under the right dorsum of the mice. When tumor size reached approximately 100 mm^3 (tumor volume=Length×width^2/2), mice received drugs through tail vein injection. […] Animals were weighed and tumor size measured every other day for 90 days. Cures were defined as no tumor present at end of the 90-day study. When tumors became too large or animals were moribund they were euthanized. Five mice were used in each group.

[3] = Maximum tolerated dose (single i.v. dose); type: in vivo, mice; conditions: single dose i.v., tumor-free athymic nude mice, 14 days
Description: Mice were monitored daily for 14 days.

PSMA = target: T1, PSMA (Homo sapiens, UniProt Q04609); test: Competitive binding assay against 3H-ZJ24 on PC3pip cells; conditions: 10 nM 3H-ZJ24, read-out: IC50, competition binding to PSMA
T1 construct: expressed in transfected cells; host or cells: PC3pip cells (retrovirally transfected, from Dr. Michel Sadelain, MSKCC)
T1 sequence (Q04609 whole entry): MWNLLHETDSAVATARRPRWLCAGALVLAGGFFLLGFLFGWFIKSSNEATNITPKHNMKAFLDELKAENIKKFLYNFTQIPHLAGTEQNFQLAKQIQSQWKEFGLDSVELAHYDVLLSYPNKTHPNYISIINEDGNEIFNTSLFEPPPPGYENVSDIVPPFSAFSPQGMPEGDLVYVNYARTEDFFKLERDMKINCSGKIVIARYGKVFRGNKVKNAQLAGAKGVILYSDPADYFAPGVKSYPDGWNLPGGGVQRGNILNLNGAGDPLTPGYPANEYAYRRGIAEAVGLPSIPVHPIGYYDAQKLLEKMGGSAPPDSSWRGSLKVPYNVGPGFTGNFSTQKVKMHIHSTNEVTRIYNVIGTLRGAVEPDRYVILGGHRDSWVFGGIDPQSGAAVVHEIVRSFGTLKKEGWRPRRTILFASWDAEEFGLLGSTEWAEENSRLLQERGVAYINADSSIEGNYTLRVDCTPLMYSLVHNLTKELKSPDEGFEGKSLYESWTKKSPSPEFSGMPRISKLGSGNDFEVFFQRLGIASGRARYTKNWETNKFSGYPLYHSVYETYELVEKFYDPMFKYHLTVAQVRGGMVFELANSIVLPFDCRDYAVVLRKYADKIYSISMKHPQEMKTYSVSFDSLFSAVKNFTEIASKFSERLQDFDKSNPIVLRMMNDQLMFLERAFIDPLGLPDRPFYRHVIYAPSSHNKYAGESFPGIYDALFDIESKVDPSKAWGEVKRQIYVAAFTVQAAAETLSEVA
Description: The assay was carried as previously reported by incubation PC3pip cells with different concentrations of drug conjugates in the presence of 10 nM N—[N—[(S)-1,3-dicarboxypropyl]carbamoyl]-S-[^3H]-methyl-L-cysteine (^3H-ZJ24) (GE Healthcare Life Sciences, Pittsburgh, Pa.). Radioactivity of cell pellet was counted by scintillation counter. The concentration required to inhibit 50% of binding was determined (IC50) by GraphPad Prism 3.0.

PC3flu cells = test: Example 1 cytotoxicity assay (Dojindo CCK8), PSMA-negative cells; type: cell-based; conditions: continuous 48 hours
Description: (§1) PC3Pip and PC3Flu cells (2000 cells/100 μL/well) were plated in 96 well plates and rested for 24 hours to adhere to the plate surface. To each well, we added 10 μL of an 11× concentrated solution of doxorubicin or conjugate. Each drug dose was tested in groups of six wells. Dojindo CCK8 assays were used to determine relative cell survival of treated wells compared with untreated controls. This is a […] assay for determination of cell viability and proliferation. A water-soluble tetrazolium salt, WST-8, is reduced by dehydrogenase activity in the cell which produces an orange dye with relative amounts quantified by absorbance. Briefly, 10 μL assay solution was added to each well, the plate was left to incubate while orange color was produced, the absorption of the solution in the plate was read at 450 nm, and the cell viabilities were calculated.

PC3Pip flank tumors = test: Example 1 mouse PC3Pip flank tumor xenograft study; type: in vivo, mice; conditions: 2 mg/kg doxorubicin or molar equivalent, day 0, 7, 14, i.v.
Description: All animal procedures were performed according to the protocols approved by the Institutional Animal Care and Use Committee (IACUC). Our approval is Case Western Reserve University IACUC #2015-0033. Athymic nude mice aged 6-8 weeks were implanted subcutaneously with 1×10^6 PC3Pip cells in 100 μL Matrigel on the right flank. Tumors were allowed to grow for two weeks. Mice were then treated with three doses of free doxorubicin or PSMA-1-MMCCH-Dox in PBS on day 0, 7, and 14 of the study via tail vein injection. Dose used was 2 mg/kg doxorubicin, or the equivalent molar dosage of the PSMA-targeted prodrug. Tumor dimensions were measured using calipers twice per week, and mouse weights were recorded on these days, as well. The study duration was 21 days.

PC3Pip and PC3Flu cells = test: Example 1 in vitro cellular uptake (doxorubicin fluorescence microscopy); type: cell-based; conditions: 1 μM, 90 minutes or 48 hours
Description: PC3Pip and PC3flu cells (1.5×10^5) were plated on coverslips and allowed to adhere for 36-48 hours. Cells were incubated in 1 μM of free doxorubicin or the various PSMA-1-Doxorubicin conjugates in RPMI media. Similar experiments are reported widely in the literature, with doses usually in the μM range because of doxorubicin's relatively dim fluorescence, at least compared with some of the commercially available dyes used in our lab. This dose was chosen to balance that relatively dim fluorescence with a goal of attempting to maintain selectivity.
Next, cells were washed 3 times with RPMI media, fixed with 4% paraformaldehyde for 10 minutes, and washed twice with phosphate-buffered saline (PBS). The cells were counterstained with DAPI nuclear staining, mounted on microscope slides with a 50% mounting solution mixture of PBS and glycol, and the coverslips were sealed with clear nail polish. Fluorescent imaging was performed with Leica DM4000B fluorescence microscopy. DAPI imaging used the Blue filter with excitation/emission at 410/455 nm. Doxorubicin was imaged with the Texas Red filter with Ex/Em 587/612 nm.

PC3pip cells [4] = test: Example 1 cytotoxicity assay (Dojindo CCK8), PSMA-expressing cells; type: cell-based; conditions: continuous 48 hours
Description: as §1

SMILES: CC[C@H](C)[C@@H]([C@@H](CC(=O)N1CCC[C@H]1[C@H](OC)[C@@H](C)C(=O)N[C@H](C)[C@@H](O)c1ccccc1)OC)N(C)C(=O)[C@@H](NC(=O)[C@@H](NC)C(C)C)C(C)C [MMAE, monomethyl auristatin E, reference compound] (H-[NMeV]V[Dil][Dolaproine]-X4)
- selectivity, differential cytotoxicity PC3pip vs PC3flu cells (PC3pip cells [1]): no selectivity
- disruption of α-tubulin (α-tubulin): non-selective tubulin disruption
- time by which all mice died ([2]; 160 nmol/kg): ≤ 36 days
- tumor growth ([2]; 160 nmol/kg i.v. every 4 days, 5 doses): relatively ineffective at inhibiting tumor growth
- maximum tolerated dose (MTD) [3]: 700 nmol/kg

SMILES: NCCCC[C@H](NC(=O)[C@H](CCC(=O)O)NC(=O)[C@H](CCC(=O)O)NC(=O)[C@H](CCC(=O)O)NC(=O)CCCCCNC(=O)C1CCC(CNC(=O)CC[C@H](NC(=O)N[C@@H](CCC(=O)O)C(=O)O)C(=O)O)CC1)C(N)=O (stereo partly shown) [PSMA-1] ({Glu-CO-γGlu}-[X1][Ahx]EEEK-NH2; C-terminus assumed)
- IC50 (PSMA): 2.3 nM

SMILES: CSC[C@H](NC(=O)N[C@@H](CCC(=O)O)C(=O)O)C(=O)O [ZJ24, reference compound]
- IC50 (PSMA): 11.7 nM

SMILES: COc1cccc2c1C(=O)c1c(O)c3c(c(O)c1C2=O)C[C@@](O)(C(=O)CO)C[C@@H]3O[C@H]1C[C@H](N)[C@H](O)[C@H](C)O1 [doxorubicin]
- growth inhibition of PC3Flu cells (PC3flu cells): potent, equal growth inhibition
- tumor growth (PC3Pip flank tumors): more rapid tumor growth
- weight loss over the duration of the study (PC3Pip flank tumors; 21 days): 17.3%
- subcellular pattern of doxorubicin signal (PC3Pip and PC3Flu cells): primarily in the nucleus
- uptake in PC3Pip compared with PC3Flu cells (PC3Pip and PC3Flu cells): equally seen in PC3Pip and PC3Flu cell lines
- growth inhibition of PC3Pip cells (PC3pip cells [4]): potent, equal growth inhibition
